Columns and labels:
[1] = tested on: rabbit corneas subjected to epithelial debridement; assay: Corneal epithelial healing in rabbit eyes; format: in vivo
Procedure: Rabbits were used to evaluate the ability of formulations to accelerate corneal epithelial wound healing in-vivo. Xylazine was used to induce analgesia in the rabbits with intramuscular injections of about 6 mg/kg. Proparacaine 0.5% weight/volume eye drops were also used as supplemental analgesia.
The eyes were kept open during the depredation using a speculum.
Using cotton buds, about 10% of alcohol was applied to the central regions of rabbit corneas for about 20 seconds. Then epithelia within an 8 mm diameter circle in were mechanically scraped using a blunt spatula. After that, eyes were washed several times using normal saline to remove scraped epithelial cells and residual alcohol that can induce corneal irritations.
The rabbits were divided into five treatment groups. Each group contained four animals. Right eyes were selected to receive normal saline while left eyes were assigned to receive the treatment.
The treatment was either about 200 μl (4 drops) of 5% ascorbic acid solution in 0.2 N sodium phosphate buffer pH 7.4, blank oily eye drops, AA as oily eye drops and AA-2G as oily eye drops.
The treatments were administered topically to the wounded eyes, along with topical ofloxacin antibiotic drops (Oflox, Allergan, Inc.), immediately following surgery and 6, 12, 24, 30, 36, 48, 54, 60 and 72-hour post-surgery.
Throughout the healing process, rabbits were closely monitored for evidence of distress or infection, and epithelial wound closure was examined at each dosing time point by applying about 50 μL of 0.25% topical fluorescein eye drops to the injured cornea and imaging the wound under cobalt blue light.
The area of each epithelial defect was measured using “ImageJ”, an image analysis software. Percent healing (“H %”) was calculated as a percentage of the initial wound area. According to the following equation: […]
Wherein Ai indicates the wound area at a given time point and A0 indicates the initial wound area.

[2] = Transcorneal permeation study, Franz-type diffusion cells; format: in vitro ADME, sheep; details: AA-2G, mean ± SD, n = 3
Procedure: (§1) In vitro permeation and accumulation studies were performed on freshly excised sheep cornea obtained from a local slaughterhouse within an hour after the slaughter of the animals.
After the preparation of excised cornea, it was directly fixed between the donor and receptor compartments of Franz-type diffusion cells in such a way that its epithelial surface was facing the donor compartment and the endothelial surface was facing the receptor compartment.
The diameter of the diffusion area of the diffusion cells was 11 mm, producing an effective diffusion area of about 0.95 cm^2. The receptor compartment was filled with about 12 ml of normal saline solution stirred using teflon-coated magnetic stirring bars and maintained at a temperature of about 37° C. by circulating warm water through the water jacket around the receptor compartment. Special care was taken to expel air bubbles from the receptor fluid.
The permeation study was carried out by placing about 1 ml of either the prepared AA-2G loaded S/O nano-dispersion, AA-2G solution or normal saline on top of the cornea in the donor compartment.
An aliquot (about 0.3 ml) of the receptor fluid was withdrawn at about 0.5, 1, 1.5, 2, 3, 4, and 6 hours after beginning the experiment and replaced by an equal volume of fresh receptor solution. The receptor fluid content of AA-2G was determined quantitatively using the High-performance liquid chromatography (“HPLC”) method.

[3] = Corneal accumulation study (AA-2G entrapped within the corneal tissue after the permeation study); format: in vitro ADME, sheep; details: Qr6 hr; AA-2G in corneal tissue; mean ± SD, n = 3
Procedure: as §1
To quantify the amount of AA-2G entrapped within the corneal tissue after finishing the in vitro permeation study, the diffusion cells were dismantled, the corneas were quickly washed with normal saline to remove the surface-attached AA-2G, then the diffusional areas were cut out and digested using about 0.5 ml of 0.5 M NaOH for about 12 hours at about 37° C. in a shaker incubator to obtain a solution. After that, about 0.5 ml of ethanol and about 1 ml of acetonitrile were added to this solution to precipitate the dissolved proteins. The samples were then centrifuged at about 8000 rpm for about 10 minutes. The supernatants were taken and diluted with the mobile phase for HPLC analysis.

| Structure (SMILES) | relative healing rate (normalized to normal saline) ([1]; 6-hour) | relative healing rate (normalized to normal saline) ([1]; 12-hours) | % healing ([1]; after 6 hours, topical, rabbit, n=4) | wound-healing rate enhancement vs control (normal saline) ([1]; first 6 hours) | effect on corneal epithelial healing ([1]; rabbit eyes, topical, vs normal saline) | Amount permeated per unit area Qt ([2]; Time 0.5 hr) | Amount permeated per unit area Qt ([2]; Time 1 hr) | Amount permeated per unit area Qt ([2]; Time 1.5 hr) | Amount permeated per unit area Qt ([2]; Time 2 hr) | Amount permeated per unit area Qt ([2]; Time 3 hr) | Amount permeated per unit area Qt ([2]; Time 4 hr) | Amount permeated per unit area Qt ([2]; Time 6 hr) | Amount accumulated per unit area Qr (accumulation) [3] |
| --- | --- | --- | --- | --- | --- | --- | --- | --- | --- | --- | --- | --- | --- |
| O=C1O[C@H]([C@@H](O)CO)C(O)=C1O [AA solution, ascorbic acid] | 3.28 | 1.39 | 22.9% | up to 3.28 folds | significantly increased |  |  |  |  |  |  |  |  |
| O=C1O[C@H]([C@@H](O)CO)C(O)=C1O[C@H]1O[C@H](CO)[C@@H](O)[C@H](O)[C@H]1O [AA-2G solution, Ascorbyl glucoside] |  |  |  |  |  | 0.00 μg/cm2 | 0.00 μg/cm2 | 0.00 μg/cm2 | 0.00 μg/cm2 | 4.56 ± 3.29 μg/cm2 | 11.21 ± 3.67 μg/cm2 | 41.02 ± 0.21 μg/cm2 | 30.91 ± 1.04 μg/cm2 |
